Laboratory results taken from patent US8952030B2, “Morphinan derivative” (priority 2011, dated 2015).
Where two headings read alike, the source gives them in different places.

Tests used:
Format in all cases: cell-based
opioid δ receptor = molecular target: T1, opioid δ receptor (Homo sapiens, UniProt P41143); assay: Opioid receptor functional test (Lance Ultra cAMP Kit), δ receptor agonist activity; details: for Emax: read-out: δ Receptor Emax
T1 construct: expressed in transfected cells; host or cells: CHO cells
T1 sequence (P41143 whole entry): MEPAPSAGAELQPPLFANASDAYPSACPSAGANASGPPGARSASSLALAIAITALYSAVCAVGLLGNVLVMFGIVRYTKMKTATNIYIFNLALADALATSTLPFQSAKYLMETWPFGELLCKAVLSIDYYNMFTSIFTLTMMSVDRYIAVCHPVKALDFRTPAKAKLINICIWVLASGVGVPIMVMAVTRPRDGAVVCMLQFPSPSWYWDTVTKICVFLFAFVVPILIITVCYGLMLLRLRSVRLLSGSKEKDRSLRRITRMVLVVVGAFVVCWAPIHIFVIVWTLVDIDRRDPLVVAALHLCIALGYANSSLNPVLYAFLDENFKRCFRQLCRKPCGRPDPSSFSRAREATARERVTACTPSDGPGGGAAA
Protocol: (§1) Functional activities of the compounds of the present invention for the μ, […], and κ opioid receptors were investigated.
(§2) The test was performed according to a prescribed method by using Lance Ultra cAMP Kit (Perkin-Elmer). The agonist activities were evaluated as follows. The CHO cells expressing each opioid receptor (μ, δ, or κ) and a test compound were reacted in an assay buffer (1×HBSS, […], pH 7.4, […] IBMX (isobutylmethylxanthine), 7.5% BSA) for 30 minutes in the presence of 10 μM forskolin. Then, the cAMP detection reagent included in the kit was added, and after 1 hour, time-resolved fluorescence measurements were performed by using the EnVision plate reader (Perkin-Elmer). A dose-responce curve of the test compound was obtained from fluorescence values measured at 665 nm, and EC50 value and Emax value were calculated. The Emax value was calculated as a ratio of the maximum responce of the test compound with respect to the maximum responce of each control agent (SNC80 for δ, DAMGO for μ, U-69593 for κ) taken as 100%.
(§3) 1): Hydrochloride was used.

opioid μ receptor = molecular target: T2, opioid μ receptor (Homo sapiens, UniProt P35372); assay: Opioid receptor functional test (Lance Ultra cAMP Kit), μ receptor agonist activity; details: for EC50: CHO cells expressing μ opioid receptor, 10 μM forskolin, cAMP; for Emax at 10 µM: maximum concentration (10 μM), reaction did not reach the maximum, EC50 N.C., relative to DAMGO
T2 construct: expressed in transfected cells; host or cells: CHO cells
T2 sequence (P35372 whole entry): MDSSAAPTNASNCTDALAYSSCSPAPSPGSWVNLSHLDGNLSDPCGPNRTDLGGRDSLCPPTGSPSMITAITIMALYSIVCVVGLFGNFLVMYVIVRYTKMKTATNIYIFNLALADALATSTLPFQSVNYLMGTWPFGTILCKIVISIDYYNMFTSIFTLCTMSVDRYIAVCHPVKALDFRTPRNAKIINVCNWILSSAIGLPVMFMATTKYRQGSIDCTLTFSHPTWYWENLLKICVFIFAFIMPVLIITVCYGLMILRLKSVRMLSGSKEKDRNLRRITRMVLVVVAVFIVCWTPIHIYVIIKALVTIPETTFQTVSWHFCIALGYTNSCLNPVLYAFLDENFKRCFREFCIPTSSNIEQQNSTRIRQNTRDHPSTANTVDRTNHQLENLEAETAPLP
Protocol: as §1, §2, §3

opioid κ receptor = molecular target: T3, opioid κ receptor (Homo sapiens, UniProt P41145); assay: Opioid receptor functional test (Lance Ultra cAMP Kit), κ receptor agonist activity; details: for Emax at 10 µM: maximum concentration (10 μM), reaction did not reach the maximum, EC50 N.C., relative to U-69593
T3 construct: expressed in transfected cells; host or cells: CHO cells
T3 sequence (P41145 whole entry): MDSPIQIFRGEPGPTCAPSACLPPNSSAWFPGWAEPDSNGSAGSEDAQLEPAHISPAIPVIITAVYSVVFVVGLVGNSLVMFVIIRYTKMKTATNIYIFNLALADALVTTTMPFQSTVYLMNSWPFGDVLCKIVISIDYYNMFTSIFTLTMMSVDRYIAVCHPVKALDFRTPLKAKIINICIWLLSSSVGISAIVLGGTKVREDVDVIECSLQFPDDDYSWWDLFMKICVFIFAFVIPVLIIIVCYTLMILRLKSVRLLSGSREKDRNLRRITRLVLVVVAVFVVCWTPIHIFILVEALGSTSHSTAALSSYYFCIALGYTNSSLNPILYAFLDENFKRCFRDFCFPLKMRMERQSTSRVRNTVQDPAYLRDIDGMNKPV
Protocol: as §1, §2, §3

[1] = CHO cells expressing δ opioid receptor, 10 μM forskolin, cAMP, hydrochloride was used, read-out: δ Receptor EC50 value
[2] = maximum response relative to SNC80 taken as 100%, hydrochloride was used
[3] = read-out: μ Receptor responce rate at the maximum concentration (reference value)
[4] = maximum response relative to DAMGO taken as 100%, hydrochloride was used, read-out: μ Receptor Emax
[5] = hydrochloride was used, read-out: κ Receptor responce rate at the maximum concentration (reference value)
[6] = hydrochloride was used, read-out: μ Receptor responce rate at the maximum concentration (reference value)
[7] = CHO cells expressing κ opioid receptor, 10 μM forskolin, cAMP, hydrochloride was used, read-out: κ Receptor EC50 value
[8] = maximum response relative to U-69593 taken as 100%, hydrochloride was used, read-out: κ Receptor Emax

Row | Compound | EC50 (opioid δ receptor; [1]) | Emax (opioid δ receptor; [2]) | Emax (opioid μ receptor; [3]) | Emax (opioid κ receptor; read-out: κ Receptor responce rate at the maximum concentration (reference value)) | EC50 (opioid μ receptor; hydrochloride was used) | Emax (opioid μ receptor; [4]) | EC50 (opioid κ receptor) | Emax (opioid κ receptor; read-out: κ Receptor Emax) | Emax at 10 µM (opioid κ receptor; [5]) | Emax at 10 µM (opioid μ receptor; [6]) | EC50 (opioid κ receptor; [7]) | Emax (opioid κ receptor; [8]) | EC50 (opioid δ receptor) | Emax (opioid δ receptor)
1 | O=C(c1ccccc1)N1C[C@H]2O[C@@]34CC[C@@H]1[C@@H]2[C@@]31CCN(CC2CC2)[C@@H]4Cc2ccc(O)cc21 [Compound 10, [(1S,3aR,5aS,6R,11bR,11cS)-14-(cyclopropylmethyl)-10-hydroxy-1,2,3a,4,5,6,7,11c-octahydro-3H-6,11b-(iminoethano)-1,5a-epoxynaphtho[1,2-e]indol-3-yl](phenyl)methanone] | < 0.001 µM | 127% | 3.9% | 2.9% |  |  |  |  |  |  |  |  |  | 
2 | CN1CC[C@@]23c4cc(O)ccc4C[C@@H]1[C@]21CC[C@@H]2[C@H]3[C@@H](CN2C(=O)c2ccccc2)O1 [Compound 12, [(1S,3aR,5aS,6R,11bR,11cS)-10-hydroxy-14-methyl-1,2,3a,4,5,6,7,11c-octahydro-3H-6,11b-(iminoethano)-1,5a-epoxynaphtho[1,2-e]indol-3-yl](phenyl)methanone] | < 0.001 µM | 94% |  |  | > 0.001 µM | 103% | > 0.01 µM | 96% |  |  |  |  |  | 
3 | O=C(c1ccccc1)N1C[C@H]2O[C@@]34CC[C@@H]1[C@@H]2[C@@]31CCN(CCO)[C@@H]4Cc2ccc(O)cc21 [Compound 27, [(1S,3aR,5aS,6R,11bR,11cS)-10-hydroxy-14-(2-hydroxyethyl)-1,2,3a,4,5,6,7,11c-octahydro-3H-6,11b-(iminoethano)-1,5a-epoxynaphtho[1,2-e]indol-3-yl](phenyl)methanone] | < 0.01 µM | 95% |  |  | > 0.05 µM | 34% |  |  | 33% |  |  |  |  | 
4 | Oc1ccc2c(c1)[C@]13CCN(CC4CC4)[C@H](C2)[C@]12CC[C@@H]1[C@H]3[C@@H](CN1c1ccccc1)O2 [Compound 31, (1S,3aR,5aS,6R,11bR,11cS)-14-(cyclopropylmethyl)-3-phenyl-2,3,3a,4,5,6,7,11c-octahydro-1H-6,11b-(iminoethano)-1,5a-epoxynaphtho[1,2-e]indol-10-ol] | < 0.01 µM | 46% |  |  |  |  |  |  |  | 14% | > 0.001 µM | 23% |  | 
5 | O=C(c1ccco1)N1C[C@H]2O[C@@]34CC[C@@H]1[C@@H]2[C@@]31CCN(CC2CC2)[C@@H]4Cc2ccc(O)cc21 [Compound 50, [(1S,3aR,5aS,6R,11bR,11cS)-14-cyclopropylmethyl-10-hydroxy-1,2,3a,4,5,6,7,11c-octahydro-3H-6,11b-(iminoethano)-1,5a-epoxynaphtho[1,2-e]indol-3-yl](2-furyl)methanone] | < 0.001 µM | 82% |  |  |  |  |  |  | 12% | 5.4% |  |  |  | 
6 | O=C(/C=C/c1ccccc1)N1C[C@H]2OC34CCC1C2C31CCN(CC2CC2)C4Cc2ccc(O)cc21 (stereo partly drawn) [Compound 57, (2E)-1-[(1S,3aR,5aS,6R,11bR,11cS)-14-(cyclopropylmethyl)-10-hydroxy-1,2,3a,4,5,6,7,11c-octahydro-3H-6,11b-(iminoethano)-1,5a-epoxynaphtho[1,2-e]indol-3-yl]-3-phenylpropenone] | < 0.01 µM | 63% |  |  |  |  |  |  | 25% | 3% |  |  |  | 
7 | O=S(=O)(c1ccccc1)N1C[C@H]2O[C@@]34CC[C@@H]1[C@@H]2[C@@]31CCN(CC2CC2)[C@@H]4Cc2ccc(O)cc21 [Compound 58, (1S,3aR,5aS,6R,11bR,11cS)-3-benzenesulfonyl-14-(cyclopropylmethyl)-2,3,3a,4,5,6,7,11c-octahydro-1H-6,11b-(iminoethano)-1,5a-epoxynaphtho[1,2-e]indol-10-ol] |  |  |  |  | > 0.001 µM | 54% |  |  | 19% |  |  |  | < 0.01 µM | 66%
8 | O=C(c1ccccc1)N1C[C@H]2O[C@@]34CC[C@@H]1[C@@H]2[C@@]31CCN(CC2CC2)[C@@H]4Cc2cccc(O)c21 [Compound 68, [(1S,3aR,5aS,6R,11bR,11cS)-14-(cyclopropylmethyl)-11-hydroxy-1,2,3a,4,5,6,7,11c-octahydro-3H-6,11b-(iminoethano)-1,5a-epoxynaphtho[1,2-e]indol-3-yl](phenyl)methanone] | < 0.01 µM | 90% |  |  | > 0.1 µM | 56% |  |  |  |  | > 0.1 µM | 99% |  | 
9 | CCCN1CC[C@@]23c4cc(O)ccc4C[C@@H]1[C@]21CC[C@@H]2[C@H]3[C@@H](CN2C(=O)c2ccccc2)C1 [Compound 83, [(1S,3aR,5aS,6R,11bR,11cS)-10-hydroxy-14-propyl-1,2,3a,4,5,6,7,11c-octahydro-3H-6,11b-(iminoethano)-1,5a-methanonaphtho[1,2-e]indol-3-yl](phenyl)methanone] | < 0.001 µM | 99% |  |  |  |  |  |  | 2.1% | 7.9% |  |  |  | 
10 | O=C(c1ccccc1)N1C[C@H]2C[C@@]34CC[C@@H]1[C@@H]2[C@@]31CCN(CCF)[C@@H]4Cc2ccc(O)cc21 [Compound 84, [(1S,3aR,5aS,6R,11bR,11cS)-14-(2-fluoroethyl)-10-hydroxy-1,2,3a,4,5,6,7,11c-octahydro-3H-6,11b-(iminoethano)-1,5a-methanonaphtho[1,2-e]indol-3-yl](phenyl)methanone] | < 0.01 µM | 99% |  |  |  |  |  |  | 5.9% | 20% |  |  |  | 
11 | CC(C)N(Cc1ccccc1)C(=O)N1C[C@H]2C[C@@]34CCC1C2[C@@]31CCN(CC2CC2)[C@@H]4Cc2ccc(O)cc21 (stereo partly drawn) [Compound 155, (1S,5aS,6R,11bR)—N-benzyl-14-(cyclopropylmethyl)-10-hydroxy-N-isopropyl-3a,4,5,6,7,11c-hexahydro-1H-6,11b-(iminoethano)-1,5a-methanonaphtho[1,2-e]indole-3(2H)-carboxamide] | < 0.001 µM | 91% |  |  |  |  |  |  |  | 3% | > 0.001 µM | 47% |  | 
12 | O=C(N1CCCCC1)N1C[C@H]2CC34CCC1C2C31CCN(CC2CC2)C4Cc2ccc(O)cc21 (stereo partly drawn) [Compound 167] | < 0.001 µM | 96% |  |  |  |  |  |  |  | 4.6% | > 0.001 µM | 22% |  | 
13 | O=C(Oc1ccccc1)N1C[C@H]2CC34CCC1C2C31CCN(CC2CC2)C4Cc2ccc(O)cc21 (stereo partly drawn) [Compound 195] |  |  | 5.6% |  |  |  | > 0.001 µM | 27% |  |  |  |  | < 0.01 µM | 92%
14 | CC(C)COC(=O)N1C[C@H]2CC34CCC1C2C31CCN(CC2CC2)C4Cc2ccc(O)cc21 (stereo partly drawn) [Compound 196] | < 0.01 µM | 67% |  |  |  |  |  |  |  | 7.6% | > 0.001 µM | 12% |  | 
15 | Oc1ccc2c(c1)[C@]13CCN(CC4CC4)[C@H](C2)[C@]12CCC1C3[C@@H](CN1c1ccccn1)C2 (stereo partly drawn) [Compound 221, (1S,5aS,6R,11bR)-14-(cyclopropylmethyl)-3-(pyridin-2-yl)-2,3,3a,4,5,6,7,11c-octahydro-1H-6,11b-(iminoethano)-1,5a-methanonaphtho[1,2-e]indol-10-ol] | < 0.001 µM | 90% |  |  | > 0.001 µM | 30% |  |  |  |  | > 0.001 µM | 42% |  | 
16 | COc1ccc2c(c1)[C@]13CCN(CC4CC4)[C@H](C2)[C@]12CCC1C3[C@@H](CN1c1nc(C)cc(C)n1)C2 (stereo partly drawn) [Compound 222, (1S,5aS,6R,11bR)-14-(cyclopropylmethyl)-3-(4,6-dimethylpyrimidin-2-yl)-10-methoxy-2,3,3a,4,5,6,7,11c-octahydro-1H-6,11b-(iminoethano)-1,5a-methanonaphtho[1,2-e]indole] | < 0.01 µM | 105% |  |  | > 0.1 µM | 52% |  |  | 43% |  |  |  |  | 
17 | Oc1ccc2c(c1)C13CCN(CC4CC4)C(C2)C12CCC1C3[C@@H](CN1c1nccs1)C2 (stereo partly drawn) [Compound 241] | < 0.01 µM | 81% |  |  |  |  |  |  |  | 11% | > 0.001 µM | 33% |  | 
18 | Oc1ccc2c(c1)C13CCN(CC4CC4)C(C2)C12CCC1C3[C@@H](CN1c1nc(-c3ccccc3)cs1)C2 (stereo partly drawn) [Compound 242] | < 0.05 µM | 68% |  |  |  |  |  |  |  | 9.2% | > 0.01 µM | 47% |  | 
19 | Cc1cc(C)nc(N2C[C@H]3CC45CCC2C3C42CCN(CC(F)(F)c3ccccc3)C5Cc3ccc(O)cc32)n1 (stereo partly drawn) [Compound 283] | < 0.05 µM | 91% |  |  | > 0.5 µM | 101% |  |  | 11% |  |  |  |  | 
20 | Cc1cc(C)nc(N2C[C@H]3CC45CCC2C3C42CCN(C[C@H](C)O)C5Cc3ccc(O)cc32)n1 (stereo partly drawn) [Compound 285] | < 0.01 µM | 81% |  |  | > 0.01 µM | 48% |  |  |  |  | > 0.1 µM | 78% |  | 
